Starred links: 1 amine or outer side, 2 acyl side, 3 side chain; linkers in the order of their positions; H or OH if unused. Residues, ends and D or L forms follow the SMILES beside them. Suc = O=C(CCC(=O)[*:2])[*:1]
| melting point [°C] | Compound |
| --- | --- |
| 56 to 59 | O=C1CCCCC1c1ccc(F)cc1 (stereo not drawn) |
| 132 to 133 | CC(CC(=O)O)C(=O)N1CCC[C@H]1C(=O)O (stereo partly drawn) |
| 185 to 186 | CCNC(=O)C1CCCN1C(=O)C(C)NC(=O)C(C)NC(=O)CCC(=O)O (stereo not drawn) (Suc-Ala-Ala-Pro-NHEt; configuration not given here) |
| 243 to 245 | COc1cc(NC(=O)CNC(=O)c2ccccc2)ccc1-c1cnco1 |
| 162 to 166 | CC(Oc1ccc(Cl)cc1)c1nnc(N)s1 (stereo not drawn) |
| 60 to 62 | N#CCc1cc(Cl)cc(Cl)c1Cl |
| 208 to 210 | O=C(CCc1ccc2cc(F)ccc2n1)NO |
| 143 to 144 | CCOC(=O)c1ccc(O)nc1 |
| 88 to 89 | Nc1ccccc1SSc1ccccc1N |
| 88 to 90 | COC(=O)C(Cc1ccccc1)Oc1ccc2cc(-c3cnc(Cc4ccccc4)o3)ccc2c1 (stereo not drawn) |
| 188 | COc1cc(Cl)c(/C(=N\O)c2ccccc2F)cc1Cl |
| 105 to 108 | COc1ccc2c(c1)CC(NC(C)=O)CC2 (stereo not drawn) |
| 125 to 127 | CSC(=NC(=O)NC(C)C)NC(=O)NC(C)C |
| 131 to 134 | CCCCCCC[C@H]1C(=O)OC[C@H](NC(=O)c2nccc(OC)c2O)C(=O)O[C@@H](C)[C@@H]1OC(=O)C(C)C |
| 182 to 183 | CC1Cc2nc(N)nc(Cl)c2C1 (stereo not drawn) |
| 207 | NC(=O)C(Nc1ncccc1[N+](=O)[O-])c1c(Cl)cccc1Cl (stereo not drawn) |
| 92 to 93 | C=CCOc1ccc2cc(O)ccc2c1 |
| 172 to 174 | O=C(NCc1ccccn1)c1nc(-c2ccccc2)c(-c2ccc(=O)n(Cc3ccccc3)n2)s1 |
| 200 to 201 | C=C(C)C(=O)NCC(=O)NCC(=O)O |
| 146 to 147 | CN1CC(CCN2C(=O)c3ccccc3C2=O)Oc2ncccc2C1=O (stereo not drawn) |
| 56 to 58 | Cn1nc(-c2cc(S)c(Cl)cc2F)c(Cl)c1C(F)(F)F |
| 132 to 133 | CCC(C)(C)c1cc(C(=O)O)c(O)c(C(C)(C)CC)c1 |
| 107 to 111 | CCCCCCCCOc1ccc2c(OC(C)=O)c3cc4ccccc4cc3c(OC(C)=O)c2c1 |

| melting point [°C] | Compound |
| --- | --- |
| 217 to 220 | COc1ccc(C(=O)Nc2nc3ccc([N+](=O)[O-])cc3c(NCc3cccs3)c2C#N)cc1 |
| 210 to 211 | Cc1cc(Br)cc(C)c1OCC1CCC[N+](C)([O-])C1 (stereo not drawn) |
| 164 to 166 | COc1ccc(C=C(Cl)Cl)c(C(=O)O)c1 |
| 355 to 358 | Cc1ccc2oc(-c3ccc(C=Cc4ccc(C(=O)O)cc4)cc3)cc2c1 |
| 264 to 266 | CC(=O)OCC(=O)C12OCOC1CC1C3CCC4=CC(=O)CCC4(C)C3(F)C(O)CC12C (stereo not drawn) |
| 157 to 158 | C/C(=C(\C#N)C(N)=S)N1CCCN(c2cccc([N+](=O)[O-])c2)CC1 |
| 276 to 278 | CC(=C1SC(=O)NC1=O)c1ccc(OCCOc2c(-c3ccc(F)cc3)n(C)c3cc(F)ccc3c2=O)cc1 |
| 157 to 160 | CCCOc1ccc(S(=O)(=O)NCc2ccncc2)cc1-c1nc2cc(N)c(N)cc2c(=O)[nH]1 |
| 245 | CCn1cc(C(=O)NO)c(=O)c2ccc(-c3ccncc3)cc21 |
| 209 to 210 | C(=C\c1nc(COc2ccc(Cn3cnnc3)cc2)co1)/c1ccccc1 |
| 157 | CC1(C)CCC(C)(C)c2cc(C#Cc3ccc(C#N)cc3)ccc21 |
| 153 to 158 | NS(=O)(=O)c1cccc2c1COC2 |
| 119 to 121 | CC1=C(C(=O)CS(=O)(=O)NC(C)C)C(c2cccc([N+](=O)[O-])c2)C(C(=O)OC(C)C)=C(C)N1 (stereo not drawn) |
| 137 to 139 | N#CC(=C1CSc2ccccc2N1)c1ccc(Cl)cc1 |
| 188 to 189 | CCC(CC)c1ccc(OC)c2nc(Nc3c(C)cc(Cl)cc3OC)n(C)c12 |
| 206 | O=C(O)c1cnc2ccc(-c3ccc(Cl)cc3)cn12 |
| 188 | O=C(NCc1cccnc1)[NH+]([O-])c1cccc2ccccc12 (stereo not drawn) |
| 102 to 106 | CN(C)c1ccc(NC(=O)N(CC2CCCCC2)C[C@H]2CCCC[C@H]2CN(CC2CCCCC2)C(=O)Nc2ccc(N(C)C)cc2)cc1 |
| 195 | CN1CCC(OC2c3ccccc3CCn3c2nc(I)c3C#N)CC1 (stereo not drawn) |
| 85 to 88 | CC(=O)N1CC(CCN2CC=CCC2c2ccc(C(F)(F)F)cc2)c2ccccc21 (stereo not drawn) |
| 94 to 95 | C=C(NC(=O)OC(C)(C)C)C(=O)OCc1ccc([N+](=O)[O-])cc1 |
| 181 to 182 | CC1(C)OC(=O)C(=C2NCCN2)C(=O)O1 |
| 142 to 143 | CC1(C)C=C(c2ccc(C(=O)N3Cc4cccn4Cc4ccccc43)cc2)CC(C)(C)C1 |

| melting point [°C] | Compound |
| --- | --- |
| 214 to 215 | CN1CCC2(CC1)Nc1cc(Cl)c(Cl)cc1-n1cccc12 |
| 120 to 124 | Cc1ccc2cccc(OCc3c(Cl)ccc(S(=O)(=O)N4CCC[C@H]4C(=O)NCCCNC(=O)c4ccc(C(N)=NO)cc4)c3Cl)c2n1 |
| 291 to 292 | O=C(O)c1cn(-c2ccc(F)cc2F)c2cc(-c3ccncc3)ccc2c1=O |
| 115 | CCN(CCO)C(=O)c1ccc(C(=O)N2CCN(c3ncccc3NC(C)C)CC2)cc1 |
| 69 to 70.5 | CCC(=O)c1ccc2c(c1)OC(c1ccccc1)(c1ccccc1)O2 |
| 237 to 238 | O=c1ccn(-c2ccc(C(F)(F)F)cc2)nc1-c1ccnn1-c1ccccc1 |
| 52 to 54 | COc1cc(C(C)=O)ccc1OCCCCBr |
| 193 to 194 | CCOC(=O)c1cn2c(ccc3c(Cl)cccc32)n1 |
| 156 to 159 | Cc1n[nH]c2cc(-c3nn(C(C)c4oc5cccc(F)c5c(=O)c4-c4cccc(F)c4)c4ncnc(N)c34)ccc12 (stereo not drawn) |
| 142 | COc1ccn2cc(-c3ccc(OC)c(OC)c3)nc2c1 |
| 73 | O=C(c1ccc(Cl)cc1)C(O)c1ccc(Cl)cc1 (stereo not drawn) |
| 244 to 247 | CCCOc1ccccc1-c1ccc(C#N)c(=O)[nH]1 |
| 98 to 100 | CCCCCCCCCCCCCCC1COC2(CC(c3ccccc3)N(O)C(c3ccccc3)C2)O1 (stereo not drawn) |
| 114 to 116 | O=S1N=C(NCCCN(Cc2ccccc2)c2ccccn2)C(NCc2cccnc2)=N1 (stereo not drawn) |
| 77 | CC1(Cl)C(=O)N(c2cc(Cl)cc(Cl)c2)N=C1Cl (stereo not drawn) |
| 180 to 183 | CCc1cccc(Nc2nc(OCC3CCCCC3)c3[nH]cnc3n2)c1 |
| 233 | COc1cc(Cc2cnc(N)nc2N)cc(-c2ccc(O)cc2)c1OC |
| 211 | Cc1ccc(C(=O)C2=C(O)C(=O)N(c3ncc(S(=O)(=O)c4ccc([N+](=O)[O-])cc4)s3)C2c2cccnc2)cc1 (stereo not drawn) |
| 222 | CCCC(=O)NC(=O)C1c2ccccc2Oc2ccccc21 |
| 144 | CCCCCCCNC(=O)Nc1ccccc1C(=O)Nc1cccnc1 |
| 157 | COc1ccc(C(=O)N(C(=O)c2ccc(OC)cc2)c2nc3ccc(N4CCN(Cc5ccccc5)CC4)cc3c(NCc3ccccc3)c2C#N)cc1 |
| 114 to 116 | IC#CCSc1cccnc1 |
| 152 to 155 | Cc1c(-c2ccccc2)oc2c(CNC(=O)CCl)cccc2c1=O |

| melting point [°C] | Compound |
| --- | --- |
| 120 | CCCCNc1ccccc1S(=O)(=O)NC(=O)n1nc(SC)n(C)c1=O |
| 239 | O=Cc1ccnc2c(NC(=O)c3c(Cl)cccc3Cl)cccc12 |
| 149 to 152 | CCC(=O)NC1Cc2cccc3c2N(CCC3)C1=O (stereo not drawn) |
| 72 to 74 | BrCCc1nc(-c2ccccc2)c(-c2ccccc2)o1 |
| 210 | Cn1ncc(C(=O)N2CCCC2)c1C(=O)Nc1ccc2nc(-c3ccccc3)nn2c1 |
| 102 to 103 | CNC1=NN(C(=O)C(C)(C)C)C(C)S1 (stereo not drawn) |
| 108 to 110 | CC(CC(C)(C)C)CP(=O)(O)Cc1cc(C(C)(C)C)c(O)c(C(C)(C)C)c1 (stereo not drawn) |
| 205 to 207 | CC(C)c1nc(-c2ccccc2Cc2ccccc2)cc(-c2ccc(F)cc2)c1C=O |
| 77 to 79 | CC(C)=Cn1ccnc1[N+](=O)[O-] |
| 228 to 229 | COC(=O)c1cc(OC)c(Cc2c(N)nc(N)nc2Cl)c(OC)c1 |
| 190 | Cn1ncnc1COc1nc2c(-c3c(F)cccc3F)nncn2c1-c1ccccc1 |
| 104 to 106 | CCCCCc1ccc(C(=O)CCCC(=O)O)cc1 |
| 92 to 94 | CC(C)[C@H](NC(=O)N(C)Cc1cccnc1)C(=O)N[C@@H](Cc1ccccc1)[C@H](O)[C@@H](O)[C@H](Cc1ccccc1)NC(=O)[C@@H](NC(=O)N(C)Cc1ccccn1)C(C)C |
| 160 to 162 | NCCCCNc1ncc2ncnc(Nc3ccc(F)c(Cl)c3)c2n1 |
| 224 to 243 | CCc1nc2c(N)nc3ccccc3c2n1CC#Cc1cccc([N+](=O)[O-])c1 |
| 162 | CC(=O)N1CCN(CCCOc2ccc(N3CCN(c4ccc5nnc(C(F)(F)F)n5n4)CC3)cc2)CC1 |
| 142 | CNc1cc(N)c(CCCN)c2c1C(=O)c1ccccc1C2=O |
| 110 to 120 | COc1ccc2c(c1)CCC1=C2CCC2(C)C(=O)CCC12 (stereo not drawn) |
| 166 to 168 | COCC1CN(c2ccc3cc(S(N)(=O)=O)ccc3c2)C(=O)O1 (stereo not drawn) |
| 139 to 141 | O=C1C(=Cn2ccnc2)CSc2ccc(Cl)cc21 |
| 181 to 183 | CCCCc1nc(Cl)c(C=O)n1Cc1ccc(-c2ccccc2-c2nc(=O)o[nH]2)cc1 |
| 138 to 140 | CN1C(=O)CCC2(C)c3ccc(Sc4ccc5ccccc5c4)cc3CCC12 (single isomer, unassigned; (+)) |

| Compound | melting point [°C] |
| --- | --- |
| OCCn1cc2c(n1)CN=C(c1ccccc1)c1cc(Cl)ccc1-2 | 173 to 175 |
| Cc1nc(C(N)=O)c2n1-c1ccc([N+](=O)[O-])cc1C(c1ccccc1Cl)=NC2 | > 300 |
| O=C1[C@@H]2[C@H](O)CCN2C(=O)N1c1ccc([N+](=O)[O-])c2ccccc12 (relative stereo) | 255 to 257 |
| C=CCc1c(O)c(C)cc2c1C(C)(C)CC1(CC(C)(C)c3cc(O)c(C)cc3O1)O2 (stereo not drawn) | 102 to 104 |
| CC(C)=CCNC(=N)N[N+](=O)[O-] | 134 to 136 |
| Nc1ccc(C#Cc2ccc(OC3CN4CCC3CC4)nn2)cc1 (stereo not drawn) | 212 to 220 |
| COC(=O)c1cncn1C(c1ccccc1)c1ccccc1 | 129 |

Reference: a melting point compilation (Tetko et al.; mined from patent text by program, amines drawn as free bases though some values may be those of a salt)
